# Results: patent publication US8697709B2, “Fused ring heteroaryl kinase inhibitors” (The Regents of the University of California, priority 2008, dated 2014)
# System: T315I Bcr-Abl BaF3 cells
# Test: Cell proliferation (Resazurin) of T315I Bcr-Abl transduced BaF3 cells
# Assay type: cell-based
# Conditions: two day treatment, without IL-3
smiles,measurement,value
"CC(C)n1nc(-c2ccc(NC(=O)Nc3cccc(C(F)(F)F)c3)cc2)c2c(N)ncnc21 [AD57, 1-(4-(4-amino-1-isopropyl-1H-pyrazolo[3,4-d]pyrimidin-3-yl)phenyl)-3-(3-(trifluoromethyl)phenyl)urea]",inhibition of growth of T315I Bcr-Abl BaF3 cells,equally inhibits the growth
